Literature values as cited in patent publication US20030180282A1, “Method of treatment of thrombotic events” (priority 2002, published 2003).
Residues, ends and D or L forms follow the SMILES beside them.

Legend:
[1] = coadministration with thrombolytic therapy

CC(=O)Oc1ccccc1C(=O)O [aspirin]
effect on reocclusion and recurrent ischemia [1]: approximate halving of frequency

N=C(N)NCCCC[C@@H]1NC(=O)CCSSC[C@@H](C(N)=O)NC(=O)[C@@H]2CCCN2C(=O)[C@H](Cc2c[nH]c3ccccc23)NC(=O)[C@H](CC(=O)O)NC(=O)CNC1=O [eptifibatide] (HELM PEPTIDE1{[O=C(CCS[*:3])[*:2]].[N=C(N)NCCCC[C@H](N[*:1])C(=O)[*:2]].G.D.W.P.C.[am]}$PEPTIDE1,PEPTIDE1,1:R3-7:R3$$$V2.0)
incidence of death and reinfarction (IMPACT-AMI, all patients randomized, placebo 7.3%): 8.0% | major hemorrhage (in vivo): 7.1%
